Assay results published in ChEMBL document CHEMBL5728321, “Therapeutically active compounds and their methods of use” (2021).
pIC50: −log10 of the molar value.

Experiment: In Vitro Assays for IDH1m (R132H or R132C) Inhibitors: In the primary reaction, the reduction of α-KG acid to 2-HG is accompanied by a concomitant oxidation of NADPH to NADP. The amount of NADPH remaining at the end of the reaction time is measured in a secondary diaphorase/resazurin reaction in which the NADPH is consumed in a 1:1 molar ratio with the conversion of resazurin to the highly fluorescent resorufin. […] The mixture of compound, enzyme, and cofactor is pre-incubated at room temperature for 1 hr prior to the addition of alpha-ketoglutarate. To perform the secondary reaction, 10 uL of 1× buffer containing 36 μg/ml diaphorase and 30 mM resazurin is added to the primary reaction and incubated for a further 5 minutes at 25° C. Florescence is read on a Spectramax platereader at Ex 544 Em 590. Compounds or compound dilutions are prepared in 100% DMSO concentration and diluted 1:50 into the final reaction. IDH1 wt/IDH1 R132C is assayed under similar conditions except that 1× Buffer is 50 mM K2HPO4, pH 6.5; 10 mM MgCl2; 10% glycerol; 0.03% (w/v) bovine serum albumin and final concentrations are 0.4 ug/mL (4.3 nM) IDH1 wt/IDH1 R132C heterodimer, 0.02 mM alpha-ketoglutarate, 4 uM NADPH, and either 300 μM NADP (saturated) or 30 μM NADP (without saturation). IC50s are determined.IDH1 or IDH2 wildtype (wt) and mutant heterodimers are expressed and purified by methods known in the art. For example, IDH1wt/R132m heterodimer is expressed and purified as follows. Co-expression of IDH1wt-his and IDH1R132C-flag is carried out in sf9 insect cells. Cells (25 g) are resuspended in 250 ml of 50 mM Tris, 500 mM NaCl, pH7.4, at 4° C. with stirring. Cells are disrupted with 4 passes through an M-Y110 Micro fluidizer (Microfluidics) set to 500 psi, and then centrifuged at 22,000 rcf for 20 min at 4° C. The supernatant is harvested and loaded at 15 cm/h on a Histrap FF 5*1 ml column (GE) which is equilibrated with 50 mM Tris, 500 mM NaCl, pH7.4. Host cell contaminants are removed by washing the column with equilibration buffer followed by equilibration buffer containing 20 mM imidazole and 60 mM imidazole to baseline. IDH1wt-his homodimer and IDH1wt-his/IDH1R132C-flag are eluted by equilibration buffer containing 250 mM imidazole. Fractions eluted by 250 mM imidazole are pooled together and loaded at 15 cm/h onto a column pre-packed with 10 ml ANTI-FLAG® M2 Affinity Gel (Sigma), the column is equilibrated with 50 mM Tris, 500 mM NaCl, pH7.4. After washing with equilibration buffer, IDH1wt-his/IDH1R132C-flag heterodimer is eluted by equilibration buffer containing flag peptide (0.2 mg/ml). Aliquots of IDH1wt-his/IDH1R132C-flag are flash frozen in liquid N2 and stored at −80° C. Same conditions are used for the purification of IDH1wt-his/IDH1R132H-flag.

| IC50 | pIC50 | Compound |
| --- | --- | --- |
| in the range around 75 nM |  | N#CC1(c2cc(Nc3nc(NC4CC5(C4)CC(F)(F)C5)nc(-c4cccc(C(F)(F)F)n4)n3)ccn2)CC1 |
| in the range around 75 nM |  | N#CC1(c2cc(Nc3nc(NCC(F)(F)F)nc(-c4cccc(C(F)(F)F)n4)n3)ccn2)CC1 |
|  | > 7.30 | N#CC1(c2cc(Nc3nc(NC4CCC(F)(F)CC4)nc(-c4cccc(C(F)(F)F)n4)n3)ccn2)CC1 |
|  | > 7.30 | N#CC1(c2cc(Nc3nc(NC4CCC(F)(F)C4)nc(-c4cccc(C(F)(F)F)n4)n3)ccn2)CC1 (centres undefined) |
